The results in this text go back to patent US7744921B2, “Liposome loading with metal ions” (Celator Pharmaceuticals, Inc., priority 2001, dated 2010).

Molecules are shown by their SMILES. “Also recorded” adds a separate entry of the source. Where two headings read alike, the source gives them in different places.

Series [1] can be described thus: Precipitation of MnSO4 in pH 7.4 HEPES buffer (metal compatible solution). In kind it is physicochemical. The settings on record: 300 mM solution of MnSO4 in pH 7.4 HEPES buffer. Here is the method:
Preferably, the metal solution should be clear and soluble, free of aggregation, precipitation or flocculation for at least about 4 hours. By way of example, a 300 mM solution of MnSO4 in pH 7.4 HEPES buffer as described in Cheung, et al. [supra] is not a metal compatible solution as it produces an obvious brown precipitate of Mn(OH)2 comprising approximately 6-7 molar % of the manganese added to the solution.
An alternative preferred method of determining whether a metal solution is metal compatible is by centrifugation (e.g. 100 ml sample at 1000 rpm for 10 minutes) to collect any precipitate, measuring the amount of precipitate collected and determining the proportion of the metal added to the original solution present in the precipitate. The amount of metal in the precipitate should not exceed about 1 molar % of the amount of metal added to the original solution.

Series [2] in a line: Active (metal-based, citrate or ionophore) loading of drug into liposomes; spin column, drug-to-lipid ratio. In kind it is physicochemical.
Assay in series [3]: as above
The class given is physicochemical. Here is the method:
Lipids were dissolved in chloroform solution and subsequently dried under a stream of nitrogen gas and placed in a vacuum pump to remove solvent. Unless otherwise specified, trace levels of radioactive lipid 3H-CHE were added to quantify lipid during the formulation process. The resulting lipid film was placed under high vacuum for a minimum of 2 hours. The lipid film was hydrated in the solution indicated to form multilamellar vesicles (MLVs). The resulting preparation was extruded 10 times through stacked polycarbonate filters with an extrusion apparatus (Lipex Biomembranes, Vancouver, BC) to achieve a mean liposome size between 80 and 150 nm. All constituent lipids of liposomes are reported in mole %.
At various time points after initiation of drug loading, aliquots were removed and passed through a Sephadex G-50 spin column to separate free from encapsulated drug. To a specified volume of eluant, Triton X-100 or N-ocyl beta-D-glucopyranoside (OGP) was added to solubilize the liposomes. Following addition of detergent, the mixture was heated to the cloud point of the detergent and allowed to cool to room temperature before measurement of the absorbance or fluorescence. Drug concentrations were calculated by comparison to a standard curve.
In order to determine whether copper loading of irinotecan in the absence of a pH gradient could occur using a cholesterol-free formulation, DSPC/DSPG (80:20 mole ratio) liposomes containing copper(II) gluconate were prepared with an external and internal pH of 7.4. […] The lipid films were hydrated in 100 mM Cu(II) gluconate adjusted to pH 7.4 with triethanolamine (TEA) and extruded at 70° C. […] Irinotecan was added to the liposome preparation at a 0.1:1 drug-to-lipid mole ratio and incubated at 50° C. The extent of drug loading was determined as described in the methods by measuring absorbance at 370 nm and lipid levels were determined by liquid scintillation counting.
Loading of daunorubicin into DSPC/DSPG (90:10 mole ratio) liposomes containing encapsulated CuSO4 buffered to pH 7.4 was also investigated. […] A solution of 150 mM CuSO4, 20 mM histidine (adjusted to pH 7.4 using TEA), was employed as the hydration medium and MLVs were extruded at 70° C. […] Daunorubicin was loaded at a 0.1:1 drug/lipid weight ratio. A drug-to-lipid ratio at various time points during loading was determined by measuring absorbance at 480 nm after solubilization in detergent to quantify daunorubicin as described; lipid levels were determined by liquid scintillation counting.
The liposomes were prepared as described in the methods by hydrating lipid films in a solution of 100 mM copper(II) gluconate adjusted to pH 7.4 with TEA. Liposomes were extruded at 65° C. and the external buffer of the liposomes was exchanged to SHE, pH 7.4 by tangential flow dialysis. Liposomes were incubated with irinotecan at a 0.1:1 drug-to-lipid weight ratio at 50° C. and the extent of drug loading was determined as described by measuring absorbance at 370 nm after solubilization by detergent.
In addition to copper loading, loading of drug using MnSO4 containing liposomes in the absence of a pH gradient was also investigated. […] Lipids films were prepared as described and hydrated in 300 mM MnSO4 buffered to pH 7.4 with 20 mM imidazole (initial pH was adjusted to 7.4 with concentrated HCl) and extrusion was carried out at 70° C. The samples were run down a Sephadex G-50 column to exchange the exterior buffer with SHE, pH 7.4.
The source holds these as a separate data set.

Series [4] in a line: Plasma drug-to-lipid ratio 24 hours after intravenous administration of daunorubicin liposomes. The class given is in vivo. The note with it: DSPC/DSPE-PEG2000 (95:5) liposomes with citrate pH 4.0, CuSO4 or MnSO4; Balb/c mice, lipid 100 mg/kg, daunorubicin 10 mg/kg. Here is the method: DSPC/DSPE-PEG2000 liposomes were prepared as described and extruded at 75° C. The external solution was exchanged to HBS by dialysis against HBS. […] Plasma lipid concentrations were determined by liquid scintillation counting. […] The resulting mixture was mixed and 2 mL of 1:1 isopropanol/chloroform was added followed by vortexing. The samples were frozen at −20° C. overnight or −80° C. for 1 hour to promote protein aggregation, brought to room temperature, vortexed and centrifuged at 3000 rpm for 10 minutes.

Consider `O=S(=O)([O-])[O-].[Mn+2]` [MnSO4 in pH 7.4 HEPES buffer, MnSO4], for which the “proportion of added manganese in Mn(OH)2 precipitate” value in series [1] is listed as 6-7 molar %.

Turning to `COc1cccc2c1C(=O)c1c(O)c3c(c(O)c1C2=O)C[C@@](O)(C(C)=O)C[C@@H]3O[C@H]1C[C@H](N)[C@H](O)[C@H](C)O1` [daunorubicin], in series [2], the drug encapsulation is given as 80% and the encapsulation is more than 95%. In addition, in series [3], the added drug encapsulated is recorded as more than 90%, the “encapsulation compared to CuCl2 (in words)” value is “not as efficient” and the “loading (in words)” value was “most efficient; also recorded: occurred to a lesser extent; also recorded: less efficient”. The “daunorubicin to lipid ratio achieved” value in series [3] (DSPC/DSPE-PEG2000 (95:5), 300 mM MnSO4, loading temperature 60° C.) is reported as 0.07 mol:mol. Further, in series [3] (DSPC/DSPE-PEG2000 (95:5), 300 mM NiSO4, SHE pH 7.4, weight ratio 0.2:1, 60° C., within 5 minutes), the drug encapsulation result is listed as “greater than 75%”. In series [3] (pH 7.4), the “loading (in words)” value is “efficiently load” and the uptake into liposomes is listed as 100%. Besides, the “plasma drug-to-lipid ratio 24 hours after intravenous administration (in words)” value in series [4] is “differing plasma drug-to-lipid ratios”.
